Source: patent publication US4882328A, “Thiazetidine derivatives” (Nippon Shinyaku Co. Ltd., priority 1987, dated 1989)
≈ marks a conversion by molar mass, not a printed value. Structures can show the parent of a compound that is named as a salt.

How the values were obtained:
P. aeruginosa E-2 [1] = experiment: Remedial Effect against Mouse Infectious Diseases, P. aeruginosa E-2; type: in vivo, ddy male mice infected with P. aeruginosa E-2; parameters: key: -: ineffective; +: somewhat poorer than enoxacin; ++: comparable to enoxacin; +++: extremely effective; conditions: P. aeruginosa E-2, 7.5×10^4 CFU/mouse; single oral dose 2 h after inoculation; survival after one week, compared with enoxacin
Method: (§1) 2. Remedial Effect against Mouse Infectious Diseases:
(§2) E. coli KC-14 and P. aeruginosa E-2 each were suspended in 4% mucin, and 0.25 ml of each of the resulting suspensions was inoculated into the abdominal cavity of ddy male mice (weight: about 20 g, 4-week age, 10 mice for one group). The amount of the bacteria inoculated was 5.1×10^4 CFU/mouse for E. coli KC-14 and 7.5×10^4 CFU/mouse for P. aeruginosa E-2. Two hours after the inoculation of the bacteria, the compound to be tested was orally administered once, and the number of the animals living after one week was counted. The results obtained were compared with those using the control enoxacin.

S. aureus = experiment: Measurement of Minimal Growth Inhibitory Concentration (MIC), agar plate dilution, S. aureus; type: cell-based; conditions: Staphylococcus aureus, 10^6 CFU/ml, 37° C., 18 hours, read-out: MIC (1)
Method: (§3) 1. Measurement of Minimal Growth Inhibitory Concentration (MIC)
(§4) MIC was measured by agar plate dilution assay method in accordance with the standard by Japan Chemical Therapeutics Association (refer to Journal of Japan Chemical Therapeutics Association, 29 (1), 76 to 79 (1981).
(§5) Briefly, a bacteria suspension as incubated in a bouillon medium for measurement of sensitivity, at 37° C. for 18 hours was diluted to 10^6 CFU/ml with the same medium. This was inoculated on an agar medium for measurement of sensitivity, which contained a compound to be tested, with a microplanter and incubated at 37° C. for 18 hours and then the MIC was measured. Enoxacin was used as a control.

P. aeruginosa E-2 [2] = experiment: Measurement of Minimal Growth Inhibitory Concentration (MIC), agar plate dilution, P. aeruginosa; type: cell-based; conditions: Pseudomonas aeruginosa, E2, 10^6 CFU/ml, 37° C., 18 hours, read-out: MIC (3)
Method: as §3, §4, §5

E. coli = experiment: Measurement of Minimal Growth Inhibitory Concentration (MIC), agar plate dilution, E. coli; type: cell-based; conditions: Escherichia coli, 10^6 CFU/ml, 37° C., 18 hours, read-out: MIC (2)
Method: as §3, §4, §5

E. coli KC-14 = experiment: Remedial Effect against Mouse Infectious Diseases, E. coli KC-14; type: in vivo, ddy male mice infected with E. coli KC-14; parameters: key: -: ineffective; +: somewhat poorer than enoxacin; ++: comparable to enoxacin; +++: extremely effective; conditions: E. coli KC-14, 5.1×10^4 CFU/mouse; single oral dose 2 h after inoculation; survival after one week, compared with enoxacin
Method: as §1, §2

CCn1cc(C(=O)O)c(=O)c2cc(F)c(N3CCNCC3)nc21 [Enoxacin, enoxacin, reference compound]
Remedial Effect (3) (P. aeruginosa E-2 [1]): ++ | MIC (S. aureus): 0.78 µg/mL (≈ 2.44 µM) | MIC (P. aeruginosa E-2 [2]): 0.78 µg/mL (≈ 2.44 µM) | MIC (E. coli): 0.2 µg/mL (≈ 0.624 µM) | Remedial Effect (2) (E. coli KC-14): ++

O=C(O)c1c2n(c3nc(N4CCNCC4)c(F)cc3c1=O)CS2 [Example 2, 6-Fluoro-7-(1-piperazinyl)-4-oxo-4H[1,3]-thiazeto[3,2-a]-1,8-naphthyridine-3-carboxylic Acid Hydrochloride]
Remedial Effect (3) (P. aeruginosa E-2 [1]): + | MIC (S. aureus): 0.39 µg/mL | MIC (P. aeruginosa E-2 [2]): 0.39 µg/mL | MIC (E. coli): 0.05 µg/mL | Remedial Effect (2) (E. coli KC-14): +

CN1CCN(c2nc3c(cc2F)c(=O)c(C(=O)O)c2n3CS2)CC1 [Example 3, 6-Fluoro-7-(4-methyl-1-piperazinyl)-4-oxo-4H[1,3]-thiazeto[3,2-a]-1,8-naphthyridine-3-carboxylic Acid Hydrochloride]
Remedial Effect (3) (P. aeruginosa E-2 [1]): +++ | MIC (S. aureus): 0.39 µg/mL | MIC (P. aeruginosa E-2 [2]): 0.39 µg/mL | MIC (E. coli): 0.025 µg/mL | Remedial Effect (2) (E. coli KC-14): +++

CC1Sc2c(C(=O)O)c(=O)c3cnc(N4CCN(C)CC4)nc3n21 (centres unmarked) [Example 7, 1-Methyl-7-(4-methyl-1-piperazinyl)-4-oxo-4H[1,3]thiazeto[3',2'-1,2]pyrido[2,3-d]pyrimidine-3-carboxylic Acid]
Remedial Effect (3) (P. aeruginosa E-2 [1]): - | MIC (S. aureus): 1.56 µg/mL (≈ 4.49 µM) | MIC (P. aeruginosa E-2 [2]): 1.56 µg/mL (≈ 4.49 µM) | MIC (E. coli): 0.1 µg/mL (≈ 0.288 µM) | Remedial Effect (2) (E. coli KC-14): ++

CC1Sc2c(C(=O)O)c(=O)c3cc(F)c(N4CCNCC4)nc3n21 (centres unmarked) [Example 12, 6-Fluoro-1-methyl-4-oxo-7-(1-piperazinyl)-4H[1,3]thiazeto[3,2-a]-1,8-naphthyridine-3-carboxylic Acid Hydrochloride]
Remedial Effect (3) (P. aeruginosa E-2 [1]): +++ | MIC (S. aureus): 0.1 µg/mL | MIC (P. aeruginosa E-2 [2]): 0.1 µg/mL | MIC (E. coli): 0.0125 µg/mL | Remedial Effect (2) (E. coli KC-14): +++

CC1Sc2c(C(=O)O)c(=O)c3cc(F)c(N4CCN(C)CC4)nc3n21 (centres unmarked) [Example 14, 6-Fluoro-1-methyl-7-(4-methyl-1-piperazinyl)-4-oxo-4H[1,3]thiazeto[3,2-a]-1,8-naphthyridine-3-carboxylic Acid]
Remedial Effect (3) (P. aeruginosa E-2 [1]): +++ | MIC (S. aureus): 0.1 µg/mL (≈ 0.274 µM) | MIC (P. aeruginosa E-2 [2]): 0.2 µg/mL (≈ 0.549 µM) | MIC (E. coli): 0.0125 µg/mL (≈ 0.0343 µM) | Remedial Effect (2) (E. coli KC-14): +++

CC1Sc2c(C(=O)O)c(=O)c3cc(F)c(N4CCOCC4)nc3n21 (centres unmarked) [Example 18, 6-Fluoro-1-methyl-7-morpholino-4-oxo-4H[1,3]thiazeto[3,2-a]-1,8-naphthyridine-3-carboxylic Acid]
Remedial Effect (3) (P. aeruginosa E-2 [1]): - | MIC (S. aureus): 0.1 µg/mL (≈ 0.285 µM) | MIC (P. aeruginosa E-2 [2]): 0.78 µg/mL (≈ 2.22 µM) | MIC (E. coli): 0.05 µg/mL (≈ 0.142 µM) | Remedial Effect (2) (E. coli KC-14): +

O=C(O)c1c2n(c3nc(N4CCNCC4)c(Cl)cc3c1=O)CS2 [Example 20, 6-Chloro-4-oxo-7-(1-piperazinyl)-4H[1,3]thiazeto[3,2-a]-1,8-naphthyridine-3-carboxylic Acid Hydrochloride]
Remedial Effect (3) (P. aeruginosa E-2 [1]): - | MIC (S. aureus): 0.78 µg/mL | MIC (P. aeruginosa E-2 [2]): 0.78 µg/mL | MIC (E. coli): 0.05 µg/mL | Remedial Effect (2) (E. coli KC-14): +

CC1Sc2c(C(=O)O)c(=O)c3cc(Cl)c(N4CCNCC4)nc3n21 (centres unmarked) [Example 21, 6-Chloro-1-methyl-4-oxo-7-(1-piperazinyl)-4H[1,3]thiazeto[3,2-a]-1,8-naphthyridine-3-carboxylic Acid Hydrochloride]
Remedial Effect (3) (P. aeruginosa E-2 [1]): + | MIC (S. aureus): 0.39 µg/mL | MIC (P. aeruginosa E-2 [2]): 0.78 µg/mL | MIC (E. coli): 0.025 µg/mL | Remedial Effect (2) (E. coli KC-14): +

CC1Sc2c(C(=O)O)c(=O)c3cc(Cl)c(N4CCN(C)CC4)nc3n21 (centres unmarked) [Example 25, 6-Chloro-1-methyl-7-(4-methyl-1-piperazinyl)-4-oxo-4H[1,3]thiazeto[3,2-a]-1,8-naphthyridine-3-carboxylic Acid Ethanesulfonate]
Remedial Effect (3) (P. aeruginosa E-2 [1]): - | MIC (S. aureus): 0.39 µg/mL | MIC (P. aeruginosa E-2 [2]): 0.78 µg/mL | MIC (E. coli): 0.025 µg/mL | Remedial Effect (2) (E. coli KC-14): +

O=C(O)c1c2n(c3nc(N4CCNCC4)c(F)cc3c1=O)C(c1ccccc1)S2 (centres unmarked) [Example 34, 6-Fluoro-1-phenyl-7-piperazinyl-4-oxo-4H[1,3]thiazeto[3,2-a]-1,8-naphthylidine-3-carboxylic acid hydrochloride]
MIC (S. aureus): 0.39 µg/mL | MIC (P. aeruginosa E-2 [2]): 0.39 µg/mL | MIC (E. coli): 0.1 µg/mL

O=C(O)c1c2n(c3nc(N4CCNCC4)c(F)cc3c1=O)C(c1ccc(F)cc1)S2 (centres unmarked) [Example 35, 6-fluoro-1-(4-fluorophenyl)-7-piperazinyl-4-oxo-4H(1,3)thiazeto(3,2-a)-1,8-naphthylidine-3-carboxylic acid]
MIC (S. aureus): 0.39 µg/mL (≈ 0.906 µM) | MIC (P. aeruginosa E-2 [2]): 0.39 µg/mL (≈ 0.906 µM) | MIC (E. coli): 0.1 µg/mL (≈ 0.232 µM)
